These results are taken from patent US7507727B2, “Substituted quinobenzoxazine analogs and methods of using thereof” (Cylene Pharmaceuticals, Inc., priority 2003, dated 2009).

“Also recorded” adds a separate entry of the source. Bounds are passed on as bounds.

Data set [1] in a line: Metabolic stability and metabolite profiling in hepatocytes. The format is in vitro ADME, human. Here is the method: Metabolic Stability Assay and Metabolite Profiling. A human hepatocyte assay to profile metabolites was carried out using commercially available kits and following standard procedures. The metabolic stability of CX-3543 with human hepatocytes was evaluated following incubation at 0, 30, 60, and 120 minutes at 1 and 20 μM. Consumption of the parent compound and the appearance of metabolites were carefully monitored, and mass spectrometer product ion scans were conducted on potential metabolite peaks to define the metabolite fragmentation pattern.
The protocol is designed to determine the stability of a new chemical entity in the presence of hepatocytes (human, rat, dog, monkey) in in vitro incubations. The test article will be incubated with hepatocytes and suitable media for various times at 37° C. The reaction mixtures will be extracted and analyzed by LC/MS/MS for the parent compound and anticipated metabolites. If applicable, a half-life will be calculated for the consumption of the test article. Metabolism controls will be run for comparison of the half-life values with that obtained for the test article. The metabolism controls are tolbutamide, desipramine and naloxone, and these compounds have defined pharmacokinetics corresponding to low, moderate and high in vivo clearance values, respectively.
Metabolic Stability Study. Generally, solutions of the test compounds are prepared along with a cocktail solution of metabolism controls that are intended to provide a reference for enzyme activity. The reactions are initiated by combining these pre-warmed solutions with hepatocyte suspensions and with a media control solution. Control zero samples are taken from these reactions immediately after initiation. Additional samples are taken at appropriate time points. Each sample is immediately placed in a terminating solution (acidified acetonitrile containing internal standard) to stop the reaction. Hepatocyte blank suspensions and test compound standard solutions are prepared.
Samples and standards for the test compound as well as appropriate blanks are subjected to a custom sample preparation procedure and analyzed for the parent and/or metabolite form of the test compound using high-performance liquid chromatography coupled with tandem mass spectrometry. Samples and standards for the metabolism controls are subjected to the analytical method described herein. Where Krebs Henseleit buffer is added, the buffer is bubbled with 5% CO2 in air at room temperature for 5-10 minutes before adding BSA to a final concentration of 0.2% w/v. The volume of terminating solution and the method of sample preparation will be determined for the test article during method development.
Test Article/Media Solution. A solution of the test article will be prepared by adding an appropriate volume of the stock solution to 0.2% BSA in Krebs Henseleit buffer equilibrated with 5% CO2 in air. The final concentration will be 20 μM and the final assay concentration at initiation of the reactions will be […].
Metabolism Controls/Media Solution. A solution of tolbutamide, desipramine and naloxone will be prepared by adding an appropriate volume of each 10 mM stock solution to 0.2% BSA in Krebs Henseleit buffer equilibrated with 5% CO2 in air. […]
Hepatocyte Suspension Solution. […] During the final step of the procedure, the viability of the cells will be determined using the method of trypan blue exclusion. […]

Data set [2] deals with panel of cancer cell-lines. In words: MTS cell survival assay, panel of cancer cell-lines. The format is cell-based. The settings on record: for IC50: MTS. Here is the method: The antitumor range of action of CX-3543 was tested in vitro using a panel of cancer cell-lines and evaluated using an MTS cell survival assay. Cells were exposed to CX3543 at various concentrations over a four day period, and IC50 values were calculated. Generally, 2,000 to 5,000 cells were seeded in each well of a 96-well plate and incubated overnight. A serial dilution of testing compounds was added to cells and further incubated for 4 days at 37° C., in a 5% CO2 humidified incubator. The survival cell numbers were evaluated by the MTS method as described in the manufacturer's protocol (Promega). […] In particular examples, IC50 values were measured by Alamar Blue.
For orientation: Tetrazolium assays rely on reduction of a dye to a coloured formazan, in cell work by metabolically active cells.

For the next data set, the system named is MiaPaCa xenograft. Description: MiaPaCa pancreatic cancer xenograft model. It is filed as in vivo, mice. The settings on record: 5, 10 and 15 mg/kg i.p. q.o.d., FIG. 10. As to the method: CX-3543 was tested against a number of cancer xenograft models to determine the in vivo efficacy. HCT-116 and PC-3 tumor-bearing nu/nu or MiaPaCa tumor-bearing SCID mice were administered reference and testing compounds on schedules indicated in figure legends. Tumor measurements were taken with calipers every other day or twice a week starting from the first day of dosing and body weights were measured at the same time points. Tumor volumes were calculated from the standard formula, W^2×L/2. c-MYC mRNA expression was measured with QPCR from all tumor samples following the final dose. 18S ribosomal RNA was used as a housekeeper and also quantified with QPCR.

As for `CN1CCCC1CCNC(=O)c1cn2c3c(c(N4CCC(c5cnccn5)C4)c(F)cc3c1=O)Oc1cc3ccccc3cc1-2` (stereo not drawn) [CX-3543], the “metabolites in the hepatocyte incubation medium” value in data set [1] (0 vs 120 min) is reported as “no single major metabolite is present”. Moreover, the results for the consumption by hepatocytes result in data set [1] (1 uM) and in data set [1] (concentrations from about 12-20 uM) were “very slowly” and “moderately to quickly”, respectively. The original drug remaining entry in data set [1] (at or below 12 uM) is “about 60%”. The Km (in general, the concentration of substrate that gives half-maximal velocity) in data set [1] (human, human hepatocytes (suspension), read-out: apparent Km of consumption by hepatocytes) was more than 20 µM. Moreover, the IC50 – broadly, the point on the concentration scale where inhibition reaches its midpoint – in data set [2] (96 h, PC3 (Prostate), 4 days) worked out at 3200 nM; in data set [2] (Homo sapiens, 786-0, 96 h, 786-O, 4 days), 2100 nM; in data set [2] (Homo sapiens, 96 h, A549, 4 days), 2900 nM; in data set [2] (Homo sapiens, 96 h, HCT-116 (Colorectal), 4 days), 3300 nM; in data set [2] (Homo sapiens, 96 h, HT-29, 4 days), 5500 nM; in data set [2] (Homo sapiens, 96 h, HeLa (cervical), 4 days) it was 3300 nM. In addition, the IC50 in data set [2] (Homo sapiens, 96 h, HepG2, 4 days) was 2500 nM; in data set [2] (Homo sapiens, 96 h, MDA-MB-231 (Breast), 4 days), 2400 nM; in data set [2] (Homo sapiens, 96 h, MDA-MB-468 (Breast), 4 days), 1500 nM; in data set [2] (Homo sapiens, 96 h, Ramos (Burkitt's Lymphoma), 4 days), 300 nM; in data set [2] (Homo sapiens, MIA PaCa-2, 96 h, MiaPaca, 4 days), 2800 nM. In addition, the “IC50 in MTS assays over a broad range of tumor types” value in data set [2] (four day exposure) is recorded as “submicromolar to single digit micromolar”. For the same compound, the tumor growth inhibition result in the data set on MiaPaCa xenograft was “inhibits tumor growth; also recorded: significant tumor growth inhibition”.
